According to PubChem BioAssay AID248 (DTP/NCI, 2004):
Where “and” joins values, the source holds several entries; their conditions need not be identical. Equal entries are not always repeated. Inconclusive results and toxic doses are left out.

System: L1210 leukemia ip in BDF1 mice, survival T/C
Assay: NCI In Vivo Anticancer Drug Screen. Data for tumor model L1210 Leukemia (intraperitoneal) in B6D2F1 (BDF1) mice
Conditions: endpoint: mean survival time, higher = longer survival
Summary of the method: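 Tumor cells were implanted, animals were treated, and survival was followed. The result divides the treated measurement by the vehicle-control measurement.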

[1] = dose: 100.0 mg/kg/injection, schedule: Q04DX003 (ip), vehicle: Klucel (hydroxypropylcellulose) (HPC)
[2] = dose: 200.0 mg/kg/injection, schedule: Q04DX003 (ip), vehicle: Klucel (hydroxypropylcellulose) (HPC)
[3] = dose: 400.0 mg/kg/injection, schedule: Q04DX003 (ip), vehicle: Klucel (hydroxypropylcellulose) (HPC)
[4] = dose: 15.0 mg/kg/injection, schedule: Q01DX Z (ip), vehicle: carboxymethylcellulose (CMC)
[5] = dose: 75.0 mg/kg/injection, schedule: Q01DX001 (ip), vehicle: saline
[6] = dose: 50.0 mg/kg/injection, schedule: Q01DX009 (ip), vehicle: saline with Tween-80
[7] = dose: 100.0 mg/kg/injection, schedule: Q01DX009 (ip), vehicle: saline with Tween-80
[8] = dose: 100.0 mg/kg/injection, schedule: Q01DX009 (ip), vehicle: Klucel (hydroxypropylcellulose) (HPC)
[9] = dose: 200.0 mg/kg/injection, schedule: Q01DX009 (ip), vehicle: Klucel (hydroxypropylcellulose) (HPC)
[10] = dose: 400.0 mg/kg/injection, schedule: Q01DX009 (ip), vehicle: Klucel (hydroxypropylcellulose) (HPC)
[11] = dose: 100.0 mg/kg/injection, schedule: Q01DX001 (ip), vehicle: saline
[12] = dose: 200.0 mg/kg/injection, schedule: Q01DX001 (ip), vehicle: saline
[13] = dose: 100.0 mg/kg/injection, schedule: Q01DX009 (ip), vehicle: saline
[14] = dose: 100.0 mg/kg/injection, schedule: Q04DX003 (ip), vehicle: saline
[15] = dose: 200.0 mg/kg/injection, schedule: Q01DX009 (ip), vehicle: saline
[16] = dose: 200.0 mg/kg/injection, schedule: Q04DX003 (ip), vehicle: saline
[17] = dose: 400.0 mg/kg/injection, schedule: Q01DX009 (ip), vehicle: saline
[18] = dose: 400.0 mg/kg/injection, schedule: Q04DX003 (ip), vehicle: saline
[19] = dose: 100.0 mg/kg/injection, schedule: Q01DX001 (ip), vehicle: carboxymethylcellulose (CMC)
[20] = dose: 200.0 mg/kg/injection, schedule: Q01DX001 (ip), vehicle: carboxymethylcellulose (CMC)

CC1CCC(C(C)C)C(NCc2cc(Cl)cc(Cl)c2O)C1 (stereo unspecified)
T/C [1]: 104 % of control
T/C [2]: 101 % of control
T/C [3]: 97 % of control

Clc1ncnc2c1nnn2/N=C/c1ccccc1
T/C [4]: 95 % of control
T/C (dose: 20.0 mg/kg/injection, schedule: Q01DX Z (ip), vehicle: carboxymethylcellulose (CMC)): 91 % of control

Cc1ccc2c(c1)Sc1ccc3ccccc3c1N2
T/C (dose: 100.0 mg/kg/injection, schedule: Q01DX009 (ip), vehicle: saline sonified): 104 % of control
T/C [1]: 97 % of control
T/C (dose: 200.0 mg/kg/injection, schedule: Q01DX009 (ip), vehicle: saline sonified): 88 % of control
T/C [2]: 89 % of control
T/C (dose: 400.0 mg/kg/injection, schedule: Q01DX009 (ip), vehicle: saline sonified): 100 % of control
T/C [3]: 92 % of control

CO[C@]12[C@@H](COC(=O)NCCO)C3=C(C(=O)C(C)=C(N)C3=O)N1C[C@@H]1[C@H]2N1C (stereo partly specified)
T/C [5]: 112 % of control

COC(=O)N/N=C/Cc1ccccc1
T/C (dose: 25.0 mg/kg/injection, schedule: Q01DX009 (ip), vehicle: saline with Tween-80): 91 % of control
T/C [6]: 90 % of control
T/C [7]: 102 % of control

CCOCC(=O)c1c(O)cc(O)cc1O
T/C [8]: 97 % of control
T/C [9]: 92 % of control
T/C [10]: 101 % of control

O=C(Nc1ccc(NC(=O)c2ccc(C3=NCCCN3)cc2)cc1)c1ccc(C2=NCCCN2)cc1
T/C (dose: 0.93 mg/kg/injection, schedule: Q01DX Z (ip), vehicle: carboxymethylcellulose (CMC)): 106 % of control
T/C (dose: 1.87 mg/kg/injection, schedule: Q01DX Z (ip), vehicle: carboxymethylcellulose (CMC)): 100 % of control
T/C (dose: 3.75 mg/kg/injection, schedule: Q01DX Z (ip), vehicle: carboxymethylcellulose (CMC)): 108 % of control and 118 % of control
T/C (dose: 7.5 mg/kg/injection, schedule: Q01DX Z (ip), vehicle: carboxymethylcellulose (CMC)): 166 % of control and 191 % of control
T/C [4]: 200 % of control and 204 % of control
T/C (dose: 30.0 mg/kg/injection, schedule: Q01DX Z (ip), vehicle: carboxymethylcellulose (CMC)): 101 % of control
T/C (dose: 37.5 mg/kg/injection, schedule: Q01DX Z (oral), vehicle: carboxymethylcellulose (CMC)): 101 % of control
T/C (dose: 75.0 mg/kg/injection, schedule: Q01DX Z (oral), vehicle: carboxymethylcellulose (CMC)): 110 % of control
T/C (dose: 150.0 mg/kg/injection, schedule: Q01DX Z (oral), vehicle: carboxymethylcellulose (CMC)): 101 % of control
T/C (dose: 300.0 mg/kg/injection, schedule: Q01DX Z (oral), vehicle: carboxymethylcellulose (CMC)): 106 % of control

CCOc1cc(C2=NNc3n[nH]c(=S)n3N2)ccc1O
T/C [8]: 94 % of control
T/C [1]: 96 % of control
T/C [9]: 98 % of control
T/C [2]: 103 % of control
T/C [10]: 97 % of control
T/C [3]: 102 % of control

CNc1ccc2cc(Br)ccc2c1
T/C (dose: 100.0 mg/kg/injection, schedule: Q01DX005 (ip), vehicle: Klucel (hydroxypropylcellulose) (HPC)): 107 % of control
T/C (dose: 200.0 mg/kg/injection, schedule: Q01DX005 (ip), vehicle: Klucel (hydroxypropylcellulose) (HPC)): 107 % of control
T/C [2]: 95 % of control
T/C (dose: 400.0 mg/kg/injection, schedule: Q01DX005 (ip), vehicle: Klucel (hydroxypropylcellulose) (HPC)): 95 % of control
T/C [3]: 101 % of control

Nc1ccccc1C(O)c1ccccc1 (stereo unspecified)
T/C [11]: 104 % of control
T/C [12]: 106 % of control

Cc1cc(C)c(-c2cc(O)c(C)cc2O)c(C)c1
T/C (dose: 25.0 mg/kg/injection, schedule: Q01DX009 (ip), vehicle: other): 103 % of control
T/C (dose: 50.0 mg/kg/injection, schedule: Q01DX009 (ip), vehicle: other): 99 % of control
T/C (dose: 100.0 mg/kg/injection, schedule: Q01DX009 (ip), vehicle: other): 101 % of control
T/C (dose: 200.0 mg/kg/injection, schedule: Q01DX009 (ip), vehicle: other): 97 % of control
T/C (dose: 400.0 mg/kg/injection, schedule: Q01DX009 (ip), vehicle: other): 100 % of control

NC(=O)CC(O)C(N)=O (stereo unspecified)
T/C [13]: 94 % of control
T/C [14]: 104 % of control
T/C [15]: 95 % of control
T/C [16]: 106 % of control
T/C [17]: 99 % of control
T/C [18]: 96 % of control

F[Si](c1ccccc1)(c1ccccc1)c1ccccc1
T/C (dose: 37.5 mg/kg/injection, schedule: Q01DX009 (ip), vehicle: saline): 88 % of control
T/C [5]: 93 % of control
T/C (dose: 75.0 mg/kg/injection, schedule: Q01DX009 (ip), vehicle: saline): 95 % of control
T/C (dose: 150.0 mg/kg/injection, schedule: Q01DX001 (ip), vehicle: saline): 102 % of control
T/C (dose: 150.0 mg/kg/injection, schedule: Q01DX009 (ip), vehicle: saline): 95 % of control
T/C (dose: 300.0 mg/kg/injection, schedule: Q01DX001 (ip), vehicle: saline): 93 % of control

CCOC(=O)C(NNc1ccccc1)C(c1ccccc1)[P+](c1ccccc1)(c1ccccc1)c1ccccc1 (stereo unspecified)
T/C (dose: 75.0 mg/kg/injection, schedule: Q01DX001 (ip), vehicle: carboxymethylcellulose (CMC)): 101 % of control

Brc1cc(Br)c2[nH]c3c(Br)cc(Br)cc3c2c1
T/C [8]: 101 % of control
T/C [9]: 102 % of control

CC(=O)N(Cc1cccc([N+](=O)[O-])c1)c1ccc(C(=O)O)cc1
T/C (dose: 100.0 mg/kg/injection, schedule: Q01DX001 (ip), vehicle: saline with Tween-80): 98 % of control
T/C (dose: 200.0 mg/kg/injection, schedule: Q01DX001 (ip), vehicle: saline with Tween-80): 119 % of control
T/C (dose: 400.0 mg/kg/injection, schedule: Q01DX001 (ip), vehicle: saline with Tween-80): 93 % of control

COc1ncc(F)c(OC)n1
T/C [11]: 100 % of control
T/C [12]: 96 % of control
T/C (dose: 400.0 mg/kg/injection, schedule: Q01DX001 (ip), vehicle: saline): 91 % of control

CC(=O)OC1CC2CCC1(C)C2(C)C (stereo unspecified)
T/C [6]: 100 % of control
T/C (dose: 50.0 mg/kg/injection, schedule: Q01DX009 (ip), vehicle: saline): 96 % of control
T/C [7]: 96 % of control
T/C [13]: 98 % of control
T/C [14]: 87 % of control
T/C (dose: 200.0 mg/kg/injection, schedule: Q01DX009 (ip), vehicle: saline with Tween-80): 96 % of control
T/C [15]: 89 % of control
T/C [16]: 90 % of control

O=[N+]([O-])c1cccc(/C=N/N(c2ccccc2)C2CCS(=O)(=O)C2)c1 (stereo unspecified)
T/C (dose: 100.0 mg/kg/injection, schedule: Q04DX002 (ip), vehicle: Klucel (hydroxypropylcellulose) (HPC)): 95 % of control
T/C (dose: 200.0 mg/kg/injection, schedule: Q04DX002 (ip), vehicle: Klucel (hydroxypropylcellulose) (HPC)): 106 % of control
T/C (dose: 400.0 mg/kg/injection, schedule: Q04DX002 (ip), vehicle: Klucel (hydroxypropylcellulose) (HPC)): 103 % of control

Brc1cc(Br)c2[nH]c(-c3ccccc3)cc2c1
T/C [19]: 95 % of control
T/C [20]: 90 % of control
T/C (dose: 400.0 mg/kg/injection, schedule: Q01DX001 (ip), vehicle: carboxymethylcellulose (CMC)): 88 % of control

O=C1C=CC(=O)N1c1ccc(O)cc1
T/C (dose: 1.25 mg/kg/injection, schedule: Q01DX009 (ip), vehicle: Klucel (hydroxypropylcellulose) (HPC)): 105 % of control
T/C (dose: 2.5 mg/kg/injection, schedule: Q01DX009 (ip), vehicle: Klucel (hydroxypropylcellulose) (HPC)): 107 % of control
T/C (dose: 2.5 mg/kg/injection, schedule: Q04DX003 (ip), vehicle: Klucel (hydroxypropylcellulose) (HPC)): 96 % of control
T/C (dose: 5.0 mg/kg/injection, schedule: Q01DX009 (ip), vehicle: Klucel (hydroxypropylcellulose) (HPC)): 102 % of control
T/C (dose: 5.0 mg/kg/injection, schedule: Q04DX003 (ip), vehicle: Klucel (hydroxypropylcellulose) (HPC)): 95 % of control

O=C1NC(=O)C(=Cc2csc3ccccc23)C(=O)N1
T/C [19]: 94 % of control
T/C [20]: 96 % of control

NCC(c1ccccc1)C(Cc1ccccc1)[N+](=O)[O-] (stereo unspecified)
T/C (dose: 75.0 mg/kg/injection, schedule: Q01DX001 (ip), vehicle: other): 115 % of control
T/C (dose: 150.0 mg/kg/injection, schedule: Q01DX001 (ip), vehicle: other): 104 % of control

COC1OC1(C)C (stereo unspecified)
T/C [13]: 102 % of control
T/C [14]: 104 % of control
T/C [15]: 103 % of control
T/C [16]: 102 % of control
T/C [17]: 100 % of control
T/C [18]: 98 % of control
